# From US12590099B2, “Inhibitors of histone deacetylase useful for the treatment or prevention of HIV infection” (Merck Sharp & Dohme LLC, priority 2018, dated 2026)
# Read-outs that look alike come from different tables or passages of the source.
# Legend:
# [1] = molecular target: T1, Recombinant human HDAC3/SMRT heterodimer (Homo sapiens, UniProt O15379); experiment: Human HDAC enzyme inhibitor Fluor-de-Lys assay, HDAC3/SMRT; format: biochemical
# T1 construct: FLAG (C); made in house
# [2] = test system: KARN cells (Jurkat 2C4); experiment: cells; format: cell-based
# How it was run: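 Luminescence (Steady-Glo, 10 min, room temperature) measured next day in KARN Jurkat 2C4 cells given compounds at up to 40 μM final with 0.4% DMSO. Percent activation normalised to DMSO (0%) and 2 μM SAHA (100%), fitted by 4-parameter curve.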
# [3] = Homo sapiens, Jurkat, read-out: Karn EC50 (nM) 0.1% NHS, 0.1% normal human serum
# [4] = Homo sapiens, Jurkat, read-out: Karn EC50 (nM) 5% NHS, 5% normal human serum
# [5] = read-out: Karn EC50 (nM) 0.1% NHS, 0.1% normal human serum
# [6] = read-out: Karn EC50 (nM) 5% NHS, 5% normal human serum
# T1 sequence (O15379 whole entry): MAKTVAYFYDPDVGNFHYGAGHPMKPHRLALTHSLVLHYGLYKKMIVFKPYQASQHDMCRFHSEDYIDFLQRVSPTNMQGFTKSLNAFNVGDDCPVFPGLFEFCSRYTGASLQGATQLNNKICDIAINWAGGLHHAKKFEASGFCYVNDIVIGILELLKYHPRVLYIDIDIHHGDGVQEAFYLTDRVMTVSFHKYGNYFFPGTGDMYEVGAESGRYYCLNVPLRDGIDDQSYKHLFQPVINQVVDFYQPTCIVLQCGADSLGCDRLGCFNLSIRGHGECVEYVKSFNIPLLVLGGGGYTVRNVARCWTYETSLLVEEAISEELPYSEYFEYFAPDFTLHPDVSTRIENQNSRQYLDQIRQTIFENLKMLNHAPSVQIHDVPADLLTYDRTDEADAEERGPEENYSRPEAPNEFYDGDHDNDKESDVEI
# T1 sequence (Q9Y618 1-899 partner limits assumed): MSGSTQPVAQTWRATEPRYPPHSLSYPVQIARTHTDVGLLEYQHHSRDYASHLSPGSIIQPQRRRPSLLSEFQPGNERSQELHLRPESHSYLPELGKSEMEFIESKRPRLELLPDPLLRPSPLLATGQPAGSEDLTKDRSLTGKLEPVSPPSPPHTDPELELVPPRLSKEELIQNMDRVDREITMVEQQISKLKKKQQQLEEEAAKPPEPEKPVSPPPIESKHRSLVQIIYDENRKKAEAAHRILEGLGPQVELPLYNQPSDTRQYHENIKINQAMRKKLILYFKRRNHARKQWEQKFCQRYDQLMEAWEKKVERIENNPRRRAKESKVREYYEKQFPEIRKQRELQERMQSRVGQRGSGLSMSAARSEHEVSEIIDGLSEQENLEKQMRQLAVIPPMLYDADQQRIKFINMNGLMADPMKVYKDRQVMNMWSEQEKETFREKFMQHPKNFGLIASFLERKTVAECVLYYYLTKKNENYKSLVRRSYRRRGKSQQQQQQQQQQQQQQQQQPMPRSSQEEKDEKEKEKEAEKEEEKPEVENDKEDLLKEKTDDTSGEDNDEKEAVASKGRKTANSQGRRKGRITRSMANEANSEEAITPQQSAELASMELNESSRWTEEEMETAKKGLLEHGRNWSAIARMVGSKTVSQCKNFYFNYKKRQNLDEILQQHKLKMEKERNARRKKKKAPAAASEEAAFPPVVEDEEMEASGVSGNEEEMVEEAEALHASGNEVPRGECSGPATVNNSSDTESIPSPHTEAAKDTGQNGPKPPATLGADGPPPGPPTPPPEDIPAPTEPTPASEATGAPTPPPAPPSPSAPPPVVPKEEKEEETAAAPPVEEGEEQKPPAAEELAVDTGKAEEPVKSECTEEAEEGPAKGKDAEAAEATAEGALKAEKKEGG
Compound,IC50 [1],"EC50 [2, 3]","EC50 [2, 4]","EC50 [2, 5]","EC50 [2, 6]"
CCC(=O)CCCCC[C@H](NC(=O)[C@H]1CC12CCN(CC)CC2)c1ncc(-c2ccc3c(cnn3C3CC3)c2)[nH]1 [Compound 159],0.49 nM,73 nM,57 nM,–,–
"CCC(=O)CCCCC[C@H](NCCN(C)C)c1ncc(-c2cc3ccc(C)nc3cc2OC)[nH]1 [Compound 217, (9S)-9-{[2-(dimethylamino)ethyl]amino}-9-[5-(7-methoxy-2-methylquinolin-6-yl)-1H-imidazol-2-yl]nonan-3-one]",10.9 nM,576 nM,518 nM,–,–
CCC(=O)CCCCC[C@H](NC(=O)C1=NOC2(CCN(C)CC2)C1)c1ncc(-c2ccc3nn(C)cc3c2)[nH]1 [Compound 154],2.76 nM,518 nM,476 nM,–,–
CCC(=O)CCCCC[C@H](NC(=O)[C@H]1CC12CCN(CC)CC2)c1ncc(-c2ccc3c(=O)n(C4CC4)ccc3c2)[nH]1 [Compound 150],0.25 nM,114 nM,135 nM,–,–
"CCC(=O)CCCCC[C@H](NC(=O)C1CC12CCN(C)C(C)(C)C2)c1ncc(-c2ccc3nc(C)ccc3c2)[nH]1 (single isomer, unassigned) [Compound 130]",2.27 nM,–,–,503 nM,598 nM
CCC(=O)CCCCC[C@H](NC(=O)[C@H]1CC12CCN(C)CC2)c1ncc(-c2ccc3ncc(Cl)cc3c2)[nH]1 [Compound 140],0.95 nM,113 nM,155 nM,–,–
CCC(=O)CCCCC[C@H](NC(=O)C1=NOC2(CCN(CC)CC2)C1)c1ncc(-c2cc3ccc(C)nc3cc2OC)o1 [Compound 204],0.7 nM,165 nM,152 nM,–,–
CCC(=O)CCCCC[C@H](NC(=O)[C@H]1CC[C@]2(CC1)OC(=O)c1ncccc12)c1ncc(-c2cc3ccccc3nc2OC)[nH]1 [Compound 141],1.98 nM,146 nM,1450 nM,–,–
CCC(=O)CCCCC[C@H](NC(=O)C1=NOC2(CCN(C)CC2)C1)c1ncc(-c2cc3ccncc3nc2OC)o1 [Compound 216],13.5 nM,194 nM,278 nM,–,–
CCC(=O)CCCCC[C@H](NC(=O)C1CC2(CCN(C)CC2)C1)c1ncc(-c2ccc3nn(C)cc3c2)[nH]1 [Compound 145],2.61 nM,641 nM,746 nM,–,–
CCC(=O)CCCCC[C@H](NC(=O)[C@H]1CC[C@]2(CC1)OC(=O)c1ncccc12)c1ncc(-c2ccc3nc(C4CC4)ccc3c2)o1 [Compound 122],20.5 nM,1130 nM,2840 nM,–,–
"CCC(=O)CCCCC[C@H](NC(=O)[C@H]1CC12CCN(CC)CC2)c1ncc(-c2ccc(-c3cnc(C4CC4)cn3)cc2)o1 [Compound 129, (1S)—N-[(1S)-1-{5-[4-(5-cyclopropylpyrazin-2-yl)phenyl]-1,3-oxazol-2-yl}-7-oxononyl]-6-ethyl-6-azaspiro[2.5]octane-1-carboxamide]",14.2 nM,828 nM,1240 nM,–,–
"CCC(=O)CCCCC[C@H](NC(=O)[C@@]1(C)CC12CCN(C(C)C)CC2)c1ncc(-c2ccc3nc(C)ccc3c2)[nH]1 (single isomer, unassigned) [Compound 151, (1S or 1R)-1-methyl-6-(1-methylethyl)-N-{(1S)-1-[5-(2-methylquinolin-6-yl)-1H-imidazol-2-yl]-7-oxononyl}-6-azaspiro[2.5]octane-1-carboxamide]",3.94 nM,583 nM,864 nM,–,–
CCC(=O)CCCCC[C@H](NC(=O)[C@H]1CC12CCN(CC)CC2)c1ncc(-c2ccc3c(=O)n(C4CC4)ccc3c2)o1 [Compound 153],6.14 nM,452 nM,447 nM,–,–
CCC(=O)CCCCC[C@H](NC(=O)[C@H]1CC12CCN(C)CC2)c1ncc(-c2ccc3nc(C4CC4)oc3c2)[nH]1 [Compound 160],2.75 nM,200 nM,234 nM,–,–
"CCC(=O)CCCCC[C@H](NC(=O)[C@H]1CC12CCN(C)CC2)c1ncc(-c2ccc3nc(N(C)C)ccc3c2)[nH]1 [Compound 66, (1S)—N-[(1S)-1-{5-[2-(dimethylamino)quinolin-6-yl]-1H-imidazol-2-yl}-7-oxononyl]-6-methyl-6-azaspiro[2.5]octane-1-carboxamide]",167 nM,27 nM,14 nM,–,–
"C=CCN1CCC2(CC1)C[C@@H]2C(=O)N[C@@H](CCCCCC(=O)CC)c1ncc(-c2cccc3c2C2CCC3N2CC=C)[nH]1 (stereo partly drawn) [Compound 180, (1S)—N-{(1S)-7-oxo-1-[5-(9-prop-2-en-1-yl-1,2,3,4-tetrahydro-1,4-epiminonaphthalen-5-yl)-1H-imidazol-2-yl]nonyl}-6-prop-2-en-1-yl-6-azaspiro[2.5]octane-1-carboxamide]",2.55 nM,371 nM,666 nM,–,–
CCC(=O)CCCCC[C@H](NC(=O)C1=NOC2(CCN(C)CC2)C1)c1ncc(-c2cc3ccc(C)nc3cc2F)o1 [Compound 221],13.6 nM,344 nM,581 nM,–,–
CCC(=O)CCCCC[C@H](NC(=O)C1=NOC2(CCN(C)CC2)C1)c1ncc(-c2cc3ccc(C)nc3cc2OC)o1 [Compound 196],0.73 nM,154 nM,162 nM,–,–

Compound,IC50 [1],"EC50 [2, 3]","EC50 [2, 4]","EC50 [2, 5]","EC50 [2, 6]"
CCC(=O)CCCCC[C@H](NC(=O)[C@H]1CC12CCN(C)CC2)c1[nH]c(-c2ccc(F)cc2)nc1C#N [Compound 76],2.88 nM,233 nM,409 nM,–,–
CCC(=O)CCCCC[C@H](NC(=O)[C@H]1CC12CCN(CC1CC1)CC2)c1ncc(-c2ccc3nc(C4CC4)ccc3c2)[nH]1 [Compound 104],< 1.5 nM,33 nM,28 nM,–,–
CCC(=O)CCCCC[C@H](NC(=O)[C@H]1CC12CCN(C)CC2)c1ncc(-c2ccc3c(=O)n(C)ccc3c2)o1 [Compound 137],4.72 nM,434 nM,443 nM,–,–
CCC(=O)CCCCC[C@H](NC(=O)[C@H]1CC12CCN(CC)CC2)c1ncc(-c2ccc3nc(C4CC4)ccc3c2)o1 [Compound 114],1.04 nM,207 nM,220 nM,–,–
CCC(=O)CCCCC[C@H](NC(=O)C1=NOC2(CCN(C)CC2)C1)c1ncc(-c2cc3ccc(=O)n(C)c3cc2OC)o1 [Compound 193],1.81 nM,284 nM,297 nM,–,–
CCC(=O)CCCCC[C@H](N)c1ncc(-c2ccc3nc(C)ccc3c2)[nH]1 [Compound 178],54.9 nM,6790 nM,10400 nM,–,–
CCN1CCC2(CC1)C[C@@H]2C(=O)N[C@@H](CCCCCC(=O)CC1CC1)c1ncc(-c2cc3ccc(C)nc3cc2OC)o1 [Compound 167],1.12 nM,122 nM,253 nM,–,–
"CC(O)C(=O)CCCCC[C@H](NC(=O)[C@H]1CC12CCN(C)CC2)c1nc(-c2ccc(F)cc2)c[nH]1 (stereo partly drawn) [Compound 134, (1S)—N-{(1S)-1-[4-(4-fluorophenyl)-1H-imidazol-2-yl]-8-hydroxy-7-oxononyl}-6-methyl-6-azaspiro[2.5]octane-1-carboxamide]",4 nM,2410 nM,2190 nM,–,–
"CCC(=O)CCCCC[C@H](NC(=O)C1CN(C)C1)c1[nH]c(-c2ccc(F)cc2)nc1Br [Compound 65, N-{(1S)-1-[4-bromo-2-(4-fluorophenyl)-1H-imidazol-5-yl]-7-oxononyl}-1-methylazetidine-3-carboxamide]",20.6 nM,2190 nM,4390 nM,–,–
CCC(=O)CCCCC[C@H](NC(=O)[C@H]1CC12CCN(CC)CC2)c1ncc(-c2ccc3c(=O)n(C(C)C)ccc3c2)[nH]1 [Compound 126],0.19 nM,53 nM,33 nM,–,–
CCC(=O)CCCCC[C@H](NC(=O)[C@H]1CC12CCN(C)CC2)c1ncc(-c2cc(OC)c3ccccc3n2)[nH]1 [Compound 170],4.84 nM,436 nM,1160 nM,–,–
CCC(=O)CCCCC[C@H](NC(=O)[C@H]1CC[C@]2(CC1)OC(=O)c1cccnc12)c1ncc(-c2ccc3nc(C4CC4)ccc3c2)o1 [Compound 123],7.59 nM,868 nM,3900 nM,–,–
"COc1cc2nc(C)ccc2cc1-c1cnc([C@H](CCCCCC(=O)CC2CC2)NC(=O)[C@H]2CC23CCN(C)CC3)o1 [Compound 195, (1S)—N-{(1S)-8-cyclopropyl-1-[5-(7-methoxy-2-methylquinolin-6-yl)-1,3-oxazol-2-yl]-7-oxooctyl}-6-methyl-6-azaspiro[2.5]octane-1-carboxamide]",1.71 nM,163 nM,216 nM,–,–
CCC(=O)CCCCC[C@H](NC(=O)[C@H]1CC12CCN(C)CC2)c1ncc(-c2ccc3nc(C4CC4)ccc3c2)o1 [Compound 121],1.16 nM,232 nM,242 nM,–,–
CCC(=O)CCCCC[C@H](NC(=O)[C@H]1CC12CCN(C)CC2)c1ncc(-c2ccc3nc(C)cc(Cl)c3c2)[nH]1 [Compound 174],0.43 nM,67 nM,82 nM,–,–
"CCC(=O)CCCCC[C@H](NC(=O)C1CC12CCN(C)C(C)(C)C2)c1ncc(-c2ccc3nc(C)ccc3c2)[nH]1 (single isomer, unassigned) [Compound 133]",< 1.5 nM,–,–,89 nM,81 nM
CCC(=O)CCCCC[C@H](NC(=O)C1=NOC2(CCN(C)CC2)C1)c1ncc(-c2ccc3nc(C4CC4)ccc3c2)o1 [Compound 135],11 nM,1120 nM,1380 nM,–,–
CCC(=O)CCCCC[C@H](NC(=O)C1CCC2(CC1)CN(C)C2)c1ncc(-c2ccc3nn(C)cc3c2)[nH]1 [Compound 156],1.98 nM,1360 nM,1360 nM,–,–
CCC(=O)CCCCC[C@H](NC(=O)[C@H]1CC12CCN(CC1CC1)CC2)c1ncc(-c2ccc3nc(C4CC4)ccc3c2)o1 [Compound 115],< 1.5 nM,239 nM,209 nM,–,–
